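Interpolation was linear, between the two tested concentrations surrounding the appropriate level; five concentrations were tested over 48 hours in 96-well plates. GI50: concentration for 50% inhibition of growth. The concentration for full growth arrest is given as TGI.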
Legend:
Experiment in all cases: NCI-60 cell line screen, 48 h
[1] = system: IGROV1 ovarian
[2] = system: MCF7 breast
[3] = system: MOLT-4 leukemia
[4] = system: OVCAR-5 ovarian
[5] = system: SK-MEL-28 melanoma
[6] = system: SNB-78 CNS
[7] = system: XF 498 CNS
[8] = system: 786-0 renal
[9] = system: BT-549 breast
[10] = system: DU-145 prostate
[11] = system: HS 578T breast
[12] = system: MDA-MB-231 breast

SMILES: CN(C)CCNC(=O)c1cccc2c(=O)c3ccccc3oc12
- TGI [1]: > 100 µM
- TGI [2]: 74 µM
- TGI [3]: > 100 µM
- TGI [4]: > 82.9 µM
- TGI [5]: > 100 µM
- TGI [6]: > 100 µM
- TGI [7]: > 93.9 µM

SMILES: CC(=O)C(C(c1ccccc1)N1CCOCC1)N1CCOCC1 (stereo not drawn)
- TGI [8]: > 100 µM
- TGI [9]: > 100 µM
- TGI [10]: > 100 µM
- TGI [11]: > 100 µM
- TGI [1]: > 100 µM
- TGI [2]: > 100 µM
- TGI [12]: > 100 µM
- TGI [3]: > 100 µM
- TGI [4]: > 100 µM
- TGI [5]: > 100 µM

SMILES: CC1(C)[C@@H]2CC[C@]1(C)[C@H](OC(=O)CSC#N)C2
- TGI [8]: 34.1 µM
- TGI [9]: > 100 µM
- TGI [10]: > 100 µM
- TGI [11]: > 100 µM
- TGI [1]: > 100 µM
- TGI [2]: > 100 µM
- TGI [12]: > 100 µM
- TGI [4]: > 100 µM
- TGI [5]: > 100 µM

SMILES: COC1OC(CS(=O)(=O)O)C(O)C(O)C1O (stereo not drawn)
- TGI [9]: > 100 µM
- TGI [10]: > 100 µM
- TGI [11]: > 100 µM
- TGI [1]: > 100 µM
- TGI [2]: > 100 µM
- TGI [3]: > 100 µM
- TGI [4]: > 100 µM
- TGI [5]: > 100 µM

SMILES: CC1=C2C(O)C(C(C)C(=O)N(C)C)CCC2(C)C=CC1=O (stereo not drawn)
- TGI [1]: > 100 µM
- TGI [2]: > 100 µM
- TGI [3]: > 100 µM
- TGI [4]: > 100 µM
- TGI [5]: > 100 µM
- TGI [6]: > 100 µM
- TGI [7]: > 100 µM

SMILES: CCC1C[N+]23CCc4c([nH]c5ccccc45)C2CC1CC3 (stereo not drawn)
- TGI [1]: > 100 µM
- TGI [3]: 95.2 µM
- TGI [4]: > 100 µM
- TGI [5]: > 100 µM
- TGI [7]: > 100 µM

SMILES: CCCC(C)c1ccc(OCCCCCCN2CCNCC2)cc1 (stereo not drawn)
- GI50 [9]: 3.08 µM
- TGI [9]: 12.4 µM
- GI50 [10]: 2.25 µM
- TGI [10]: 5.43 µM
- GI50 [11]: 1.87 µM
- TGI [11]: 4.74 µM
- GI50 [1]: 1.92 µM
- TGI [1]: 3.78 µM
- GI50 [12]: 1.75 µM
- TGI [12]: 3.58 µM
- GI50 [3]: 1.52 µM
- TGI [3]: 3.48 µM
- GI50 [4]: 2.73 µM
- TGI [4]: 7.9 µM
- GI50 [5]: 1.84 µM
- TGI [5]: 3.65 µM

SMILES: Cc1ccc(S(=O)(=O)Nc2cccc3c(=O)[nH]cnc23)cc1
- TGI [8]: > 100 µM
- TGI [1]: > 100 µM
- TGI [3]: > 100 µM
- TGI [4]: > 100 µM
- TGI [5]: > 100 µM
- TGI [6]: > 100 µM
- TGI [7]: > 100 µM

SMILES: CCOP(=Nc1ccc(N(C)C)cc1)(OCC)OCC
- TGI [9]: > 100 µM
- TGI [10]: > 100 µM
- TGI [11]: > 100 µM
- TGI [1]: > 100 µM
- TGI [2]: > 100 µM
- TGI [12]: > 100 µM
- TGI [3]: > 100 µM
- TGI [4]: > 100 µM
- TGI [5]: > 100 µM

SMILES: O=C(c1ccccc1)c1ccc2n[se]nc2c1
- TGI [1]: > 100 µM
- TGI [3]: > 100 µM
- TGI [4]: > 100 µM
- TGI [5]: > 100 µM
- TGI [6]: > 100 µM

From PubChem BioAssay (NCI)
